Earlier results on four molecules are cited in patent US20190216952A1, “Method for substantiating validating products for environmental safety” (priority 2018, published 2019).

The subject of series [1] is coral. To be noted: Downs et al.
The test system of series [2] is coral. The settings on record: Danovaro et al 2008.

With `COc1ccc(C(=O)c2ccccc2)c(O)c1` [Oxybenzone], the toxicity in coral entry in the series on coral [1] is on record as “toxicity”. The coral bleaching/death result with coral [2] is recorded as “caused coral bleaching/death”. Turning to `Cc1ccc(C=C2C(=O)C3(C)CCC2C3(C)C)cc1` (centres unmarked) [4-Methylbenzylidene Camphor], in the series with coral [2], the coral bleaching/death entry is “caused coral bleaching/death”. For `CCCCOC(=O)c1ccc(O)cc1` [Butylparaben], in the series on coral [2], the coral bleaching/death result was “caused coral bleaching/death”. In the case of `CCCCC(CC)COC(=O)C=Cc1ccc(OC)cc1` (centres unmarked) [Octinoxate], the coral bleaching/death entry in the series with coral [2] is “caused coral bleaching/death”.
